Laboratory results reported in ChEMBL document CHEMBL3272131, “Molecular connectivity. 6. Examination of the parabolic relationship between molecular connectivity and biological activity” (J Med Chem, 1976).

What was measured:
Rattus norvegicus = organism: Rattus norvegicus; assay: Induction of hypnotic activity in rat; format: functional
Pseudomonas aeruginosa = assay: Antimicrobial activity against Pseudomonas aeruginosa; format: functional
Staphylococcus aureus = assay: Antimicrobial activity against Staphylococcus aureus; format: functional
Clostridium perfringens = assay: Antimicrobial activity against Clostridium welchii; format: functional
[1] = Toxicity in sheep RBC assessed as hemolysis; format: cell-based, Ovis aries; settings: erythrocyte
[2] = system: Mycobacterium tuberculosis; assay: Antimicrobial activity against Mycobacterium tuberculosis; format: functional
Mus musculus = assay: Induction of anesthetic activity in mouse; format: functional
[3] = Drug absorption in intestine (unknown origin) assessed as tissue-bound transfer; format: ADME, tissue-based
[4] = Drug absorption in intestine (unknown origin) assessed as serosal transfer; format: ADME, tissue-based
[5] = Drug absorption in intestine (unknown origin) assessed as mucosal loss; format: ADME, tissue-based
Oryctolagus cuniculus = organism: Oryctolagus cuniculus; assay: Induction of hypnotic activity in rabbit; format: functional

## C=CCC1(CCC(C)C)C(=O)NC(=O)NC1=O
Rattus norvegicus
  -log(1/MED): 3.45

## CCC1(CC)C(=O)NC(=O)NC1=O [BARBITAL]
Rattus norvegicus
  -log(1/MED): 2.91

## CCCCC1(CC)C(=O)NC(=O)NC1=O [BUTETHAL]
Rattus norvegicus
  -log(1/MED): 3.53

## CCCCCCCCCCCCCC[N+](C)(C)Cc1ccccc1 [MIRISTALKONIUM ION]
Pseudomonas aeruginosa
  -log(1/MIC): 3.65
  -log(1/MKC): 3.96
Staphylococcus aureus
  -log(1/MIC): 5.82
Clostridium perfringens
  -log(1/MIC): 5.12
  -log(1/MKC): 5.12
[1]
  -log(1/HC50): 4.4

## CCCCCCOc1ccc(N)cn1
[2]
  -log(1/MIC): 5.49

## CCCCOc1ccc(N)c2ccccc12
[2]
  -log(1/MIC): 4.03

## CCCC1(C(C)C(C)(C)C)C(=O)NC(=O)NC1=O (configuration not stated)
Mus musculus
  -log(1/AD50): 3.29

## C=CCC1(CCC)C(=O)NC(=O)NC1=O
Rattus norvegicus
  -log(1/MED): 3.47

## CCCCOc1ccc(N)cn1
[2]
  -log(1/MIC): 5.13

## CCOC(N)=O [URETHANE]
[3]
  log%Abs: -0.22
[4]
  log%Abs: 0.53
[5]
  log%Abs: 0.6

## CCC1(CCC(C)C)C(=O)NC(=O)NC1=O [AMOBARBITAL]
Rattus norvegicus
  -log(1/MED): 3.59

## COc1ncccc1N
[2]
  -log(1/MIC): 2.59

## CC(C)(C)CC1(C)C(=O)NC(=O)NC1=O
Mus musculus
  -log(1/AD50): 2.12

## CC(C(C)(C)C)C1(C)C(=O)NC(=O)NC1=O (configuration not stated)
Mus musculus
  -log(1/AD50): 2.64

## CCCCCCCCCCOc1ncccc1N
[2]
  -log(1/MIC): 3.19

## CCCCC1(CCCC)C(=O)NC(=O)NC1=O
Rattus norvegicus
  -log(1/MED): 3.08

## CCCC1(CCC)C(=O)NC(=O)NC1=O
Oryctolagus cuniculus
  -log(1/MED): 3.55

## CCCCCOc1ccc(N)cc1
[2]
  -log(1/MIC): 5.45

## CCCCC1(C(C)C(C)(C)C)C(=O)NC(=O)NC1=O (configuration not stated)
Mus musculus
  -log(1/AD50): 3.36

## CCCCCCCCCCCCCCCCCC[N+](C)(C)Cc1ccccc1
Pseudomonas aeruginosa
  -log(1/MKC): 2.63
Staphylococcus aureus
  -log(1/MIC): 5.19
Clostridium perfringens
  -log(1/MIC): 4.71
  -log(1/MKC): 4.71
[1]
  -log(1/HC50): 4.52

## C=CCC1(CCCC)C(=O)NC(=O)NC1=O
Rattus norvegicus
  -log(1/MED): 3.47

## CCC1(CC(C)C)C(=O)NC(=O)NC1=O
Oryctolagus cuniculus
  -log(1/MED): 3.63

## CC(C)COc1ncccc1N
[2]
  -log(1/MIC): 4.52

## CCCCCCCCCCCCC[N+](C)(C)Cc1ccccc1 [BENZALKONIUM]
Pseudomonas aeruginosa
  -log(1/MIC): 3.8
  -log(1/MKC): 3.85
Staphylococcus aureus
  -log(1/MIC): 5.8
Clostridium perfringens
  -log(1/MIC): 5.1
  -log(1/MKC): 5.1

## CCCCCCCCCCCCCCCCC[N+](C)(C)Cc1ccccc1
Pseudomonas aeruginosa
  -log(1/MIC): 3.57
  -log(1/MKC): 3.06
Staphylococcus aureus
  -log(1/MIC): 5.18
Clostridium perfringens
  -log(1/MIC): 4.7
  -log(1/MKC): 4.7

## CCCCCCCOC(N)=O
[3]
  log%Abs: -0.28
[4]
  log%Abs: -0.17
[5]
  log%Abs: 0.08

## C=CCC1(CC(C)C)C(=O)NC(=O)NC1=O [BUTALBITAL]
Rattus norvegicus
  -log(1/MED): 3.63

## CCCCCCCOc1ncccc1N
[2]
  -log(1/MIC): 4.62

## CCCCC1(CC(C)(C)C)C(=O)NC(=O)NC1=O
Mus musculus
  -log(1/AD50): 3.33

## C=CCC1(C(C)CC)C(=O)NC(=O)NC1=O (configuration not stated) [TALBUTAL]
Rattus norvegicus
  -log(1/MED): 3.78

## CCCCCCCCCCC[N+](C)(C)Cc1ccccc1
Pseudomonas aeruginosa
  -log(1/MIC): 3.06
  -log(1/MKC): 2.92
Staphylococcus aureus
  -log(1/MIC): 5.06
Clostridium perfringens
  -log(1/MIC): 4.06
  -log(1/MKC): 4.06

## CCOc1ncccc1N
[2]
  -log(1/MIC): 3.54

## CC(C)COC(N)=O
[3]
  log%Abs: 0.04
[4]
  log%Abs: 0.75
[5]
  log%Abs: 0.83

## CCCCCC1(CC(C)(C)C)C(=O)NC(=O)NC1=O
Mus musculus
  -log(1/AD50): 3.32

## CCCCOc1ccc(N)cc1
[2]
  -log(1/MIC): 5.42

## CCCCCCOc1ccc(N)cc1
[2]
  -log(1/MIC): 5.8

## COC(N)=O [METHYL CARBAMATE]
[3]
  log%Abs: -0.38
[4]
  log%Abs: 0.45
[5]
  log%Abs: 0.52

## CCCCCOc1ncccc1N
[2]
  -log(1/MIC): 5.76

## CCCCCCCCCCCCCCCC[N+](C)(C)Cc1ccc2c(c1)OCO2
Staphylococcus aureus
  -log(1/MIC): 4.2

## CC(C)CC1(CC(C)(C)C)C(=O)NC(=O)NC1=O
Mus musculus
  -log(1/AD50): 3.27

## CCCCCCCCOc1ncccc1N
[2]
  -log(1/MIC): 3.75

## CCCCCCCCOc1ccc(N)cc1
[2]
  -log(1/MIC): 3.44

## CCCCCCCCCCCCCCCC[N+](C)(C)Cc1ccccc1 [CETALKONIUM]
Pseudomonas aeruginosa
  -log(1/MIC): 3.68
  -log(1/MKC): 3.3
Staphylococcus aureus
  -log(1/MIC): 5.56
Clostridium perfringens
  -log(1/MIC): 5.16
  -log(1/MKC): 5.16
[1]
  -log(1/HC50): 4.79

## CCC1(CC(C)(C)C)C(=O)NC(=O)NC1=O
Mus musculus
  -log(1/AD50): 2.91

## CCCOc1ncccc1N
[2]
  -log(1/MIC): 4.79

## CCC1(c2ccccc2)C(=O)NC(=O)NC1=O [PHENOBARBITAL]
Oryctolagus cuniculus
  -log(1/MED): 3.46

## CCCC(C)(C)OC(N)=O
[3]
  log%Abs: -0.21
[4]
  log%Abs: 0.09
[5]
  log%Abs: 0.26

## C=CCC1(C(C)C)C(=O)NC(=O)NC1=O [APROBARBITAL]
Rattus norvegicus
  -log(1/MED): 3.6

## CCCCCCCCOC(N)=O
[3]
  log%Abs: -0.57
[4]
  log%Abs: -0.43
[5]
  log%Abs: -0.19

## CCCCCCCCCCCCCCC[N+](C)(C)Cc1ccccc1
Pseudomonas aeruginosa
  -log(1/MIC): 3.84
  -log(1/MKC): 3.74
Staphylococcus aureus
  -log(1/MIC): 5.84
Clostridium perfringens
  -log(1/MIC): 5.14
  -log(1/MKC): 5.14

## CCCCCCCCCCCCCCCCCCC[N+](C)(C)Cc1ccccc1
Pseudomonas aeruginosa
  -log(1/MIC): 2.91
  -log(1/MKC): 2.52
Staphylococcus aureus
  -log(1/MIC): 4.91
Clostridium perfringens
  -log(1/MIC): 4.73
  -log(1/MKC): 4.73

## CCCOC(N)=O
[3]
  log%Abs: -0.04
[4]
  log%Abs: 0.71
[5]
  log%Abs: 0.78

## CCCCCCCCCCCCCCCCCC[N+](C)(C)Cc1ccc(Cl)cc1Cl
Staphylococcus aureus
  -log(1/MIC): 3.3

## CCCCCCCC[N+](C)(C)Cc1ccccc1
Pseudomonas aeruginosa
  -log(1/MKC): 1.68
Staphylococcus aureus
  -log(1/MIC): 3.69
Clostridium perfringens
  -log(1/MIC): 3
  -log(1/MKC): 2.69
[1]
  -log(1/HC50): 1.52

## CCCCCCCCCCCC[N+](C)(C)Cc1ccccc1 [BENZODODECINIUM]
Pseudomonas aeruginosa
  -log(1/MIC): 3.61
  -log(1/MKC): 3.45
Staphylococcus aureus
  -log(1/MIC): 5.61
Clostridium perfringens
  -log(1/MIC): 4.61
  -log(1/MKC): 4.61
[1]
  -log(1/HC50): 3.82

## CCCC1(CCC(C)C)C(=O)NC(=O)NC1=O
Oryctolagus cuniculus
  -log(1/MED): 3.48

## CCCCCCCCCCCC[N+](C)(C)Cc1ccc2c(c1)OCO2
Staphylococcus aureus
  -log(1/MIC): 4

## CC(C)CCC1(CC(C)(C)C)C(=O)NC(=O)NC1=O
Mus musculus
  -log(1/AD50): 3.26

## CCCCCCCC[N+](C)(C)Cc1ccc(Cl)cc1
Staphylococcus aureus
  -log(1/MIC): 2.6

## CCCCCCOC(N)=O
[3]
  log%Abs: -0.05
[4]
  log%Abs: 0.35
[5]
  log%Abs: 0.5

## CCCCC1(C(C)C)C(=O)NC(=O)NC1=O
Rattus norvegicus
  -log(1/MED): 3.49

## CCC1(C(C)C(C)(C)C)C(=O)NC(=O)NC1=O (configuration not stated)
Mus musculus
  -log(1/AD50): 3.15

## COc1ccc(N)cc1
[2]
  -log(1/MIC): 3.39

## CCCC1(C(C)C)C(=O)NC(=O)NC1=O
Oryctolagus cuniculus
  -log(1/MED): 3.63

## CCCCOc1ccncc1N
[2]
  -log(1/MIC): 5.73

## C=CCC1(C(C)C(C)(C)C)C(=O)NC(=O)NC1=O (configuration not stated)
Mus musculus
  -log(1/AD50): 3.39

## CCC(C)(C)OC(N)=O
[3]
  log%Abs: 0.04
[4]
  log%Abs: 0.68
[5]
  log%Abs: 0.77

## CCCCCCCCCC[N+](C)(C)Cc1ccccc1
Pseudomonas aeruginosa
  -log(1/MIC): 2.74
  -log(1/MKC): 2.41
Staphylococcus aureus
  -log(1/MIC): 4.74
Clostridium perfringens
  -log(1/MIC): 3.57
  -log(1/MKC): 3.57
[1]
  -log(1/HC50): 2.95

## CCCCOC(N)=O
[3]
  log%Abs: 0.1
[4]
  log%Abs: 0.82
[5]
  log%Abs: 0.9

## CCCCCCCCCC[N+](C)(C)Cc1ccc(Cl)cc1
Staphylococcus aureus
  -log(1/MIC): 3.6

## CC(C)(C)OC(N)=O
[3]
  log%Abs: 0
[4]
  log%Abs: 0.65
[5]
  log%Abs: 0.73

## NC(=O)OCc1ccccc1 [BENZYL CARBAMATE]
[3]
  log%Abs: 0.01
[4]
  log%Abs: 0.59
[5]
  log%Abs: 0.69

## CCCC1(CC(C)(C)C)C(=O)NC(=O)NC1=O
Mus musculus
  -log(1/AD50): 3.04

## C=CCC1(CC=C)C(=O)NC(=O)NC1=O [ALLOBARBITAL]
Rattus norvegicus
  -log(1/MED): 3.54

## CCOc1ccc(N)cc1
[2]
  -log(1/MIC): 4.44

## CCCCCCOc1ccncc1N
[2]
  -log(1/MIC): 5.8

## CCCCCOC(N)=O
[3]
  log%Abs: 0.02
[4]
  log%Abs: 0.57
[5]
  log%Abs: 0.68

## C=CCC1(CC)C(=O)NC(=O)NC1=O [ETALLOBARBITAL]
Rattus norvegicus
  -log(1/MED): 3.28
